According to US6727264B1 (Synaptic Pharmaceutical Corporation, priority 2001, dated 2004):

target: rat MCH-1 (Rattus norvegicus, UniProt P97639); assay: Radioligand binding assay at cloned rat MCH1 receptor ([3H] Compound A); parameters: host or cells: Peak rapid 293 (Peakr293) cells, transient calcium phosphate transfection, membranes; settings: cloned rat MCH1 receptor, membranes from Peakr293 cells, 0.08 nM [3H] Compound A; read-out: Ki (nM) rMCH1
Sequence (P97639 whole entry): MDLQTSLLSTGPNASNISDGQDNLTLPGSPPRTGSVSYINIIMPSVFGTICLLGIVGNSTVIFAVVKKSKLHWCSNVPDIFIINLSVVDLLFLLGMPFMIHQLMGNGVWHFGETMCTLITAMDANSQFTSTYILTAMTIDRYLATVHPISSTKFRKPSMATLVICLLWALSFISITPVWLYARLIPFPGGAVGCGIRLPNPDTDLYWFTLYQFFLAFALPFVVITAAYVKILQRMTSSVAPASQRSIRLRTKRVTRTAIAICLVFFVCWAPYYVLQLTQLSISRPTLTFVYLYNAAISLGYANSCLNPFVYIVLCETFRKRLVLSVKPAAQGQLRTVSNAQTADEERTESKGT

Structure (SMILES) | Ki [nM]
Cc1ccc(OC(CCN2CCC(c3cccc(NC(=O)C(C)C)c3)CC2)c2ccc(Br)cc2)c(Cl)c1 (centres unmarked) [Example 150] | 8
CC(C)C(=O)Nc1cccc(C2CCN(CCC(Oc3ccc(F)cc3)c3ccc(Br)cc3)CC2)c1 (centres unmarked) [Example 160] | 6.2
CC(C)C(=O)Nc1cccc(C2CCN(CCCOc3ccccc3Br)CC2)c1 [Example 350] | 12.1
CC(C)C(=O)Nc1cccc(C2CCN(C[C@@H](C)COc3ccccc3Cl)CC2)c1 [Example 368] | 313
Cc1onc(-c2ccccc2)c1C(=O)OCCCCCCN1CCC(c2cccc(NC(=O)C(C)C)c2)CC1 [Example 298, 6-{4-[3-(ISOBUTYRYLAMINO)PHENYL]-1-PIPERIDINYL}HEXYL 5-METHYL-3-PHENYL-4-ISOXAZOLECARBOXYLATE] | 40.1
CC(C)C(=O)Nc1cccc(C2CCN(CCC(Oc3ccc(C(F)(F)F)cc3)c3ccc4c(c3)CCC4)CC2)c1 (centres unmarked) [Example 164] | 16.3
COc1cccc(OCCCCN2CCC(c3cccc(NC(=O)C(C)C)c3)CC2)c1 [Example 376] | 888
CC(C)C(=O)Nc1cccc(C2CCN(Cc3cccc(Oc4ccc(C(C)(C)C)cc4)c3)CC2)c1 [Example 213] | 519
COc1ccc(O[C@H](CN2CCC(c3cccc(NC(=O)C(C)C)c3)CC2)c2ccccc2)cc1OC [Example 336] | 693
CC(C)C(=O)Nc1cccc(C2CCN(Cc3ccc(-c4nc(C(C)(C)C)cs4)cc3)CC2)c1 [Example 229] | 885
CC(C)C(=O)Nc1cccc(C2CCN(CC[C@H](NC(=O)c3ccco3)c3ccccc3)CC2)c1 [Example 326] | 19.2
CC(C)C(=O)Nc1cccc(C2CCN(CCNC(=O)C(c3ccccc3)c3ccccc3)CC2)c1 [Example 107] | 1.7
Cc1csc2sc(CN3CCC(c4cccc(NC(=O)C(C)C)c4)CC3)c(C)c12 [Example 215, N-(3-{1-[(3,4- DIMETHYLTHIENO[2,3-B]THIEN-2-YL)METHYL]-4-PIPERIDINYL}PHENYL)-2-METHYLPROPANAMIDE] | 283
CC(C)C(=O)Nc1cccc(C2CCN(CCCOc3ccccc3Cl)CC2)c1 [Example 348] | 84
COC(=O)c1ccc(OC(CCN2CCC(c3cccc(NC(=O)C(C)C)c3)CC2)c2ccc(Br)cc2)cc1 (centres unmarked) [Example 148, METHYL 4-(1-(4-BROMOPHENYL)-3-{4-[3-(ISOBUTYRYLAMINO)PHENYL]-1-PIPERIDINYL}PROPOXY)BENZOATE] | 24.7
CC(C)C(=O)Nc1cccc(C2CCN(CCCNC(=O)c3csc4ccccc34)CC2)c1 [Example 330] | 215

same assay, conditions: cloned rat MCH1 receptor; 0.08 nM [3H] Compound A; Peakr293 cell membranes; read-out: Ki (nM) rMCH1

Structure (SMILES) | Ki [nM]
CC(C)C(=O)Nc1cccc(C2CCN(CCCc3c(-c4cccc(Br)c4)[nH]c4c3ccc3ccccc34)CC2)c1 [Example 755] | 23.8
O=C(CCCCN1CCC(c2cccc(NC(=O)C3CC3)c2)CC1)c1cccc([N+](=O)[O-])c1 [Example 553] | 27.5
CC(C)C(=O)Nc1cccc(C2CCN(Cc3cn(C)c4ccccc34)CC2)c1 [Example 426] | 556
Cc1ccc2[nH]c(-c3ccccc3Br)c(CCCN3CCC(c4cccc(NC(=O)C(C)C)c4)CC3)c2c1 [Example 785] | 22.7
O=C(Nc1cccc(C2CCN(Cc3cn(-c4ccc(Cl)cc4)c4cc(Cl)ccc34)CC2)c1)C1CC1 [Example 476] | 12.7
CCC(=O)Nc1cccc(C2CCN(CCCCC(=O)c3cccc(C(F)(F)F)c3)CC2)c1 [Example 571] | 88.3
CC(C)C(=O)Nc1cccc(C2CCN(CCCCCC(O)c3ccccc3F)CC2)c1 (centres unmarked) [Example 809] | 56.8
CC(C)C(=O)Nc1cccc(C2CCN(CCCCC(Oc3ccc(Br)cc3)c3ccc(Cl)cc3)CC2)c1 (centres unmarked) [Example 936] | 11.6
CC(C)C(=O)Nc1cccc(C2CCN(CCCCC(=O)c3ccccc3C(F)(F)F)CC2)c1 [Example 663] | 73.4
CCC(=O)Nc1cccc(C2CCN(Cc3cn(-c4ccc(Cl)cc4)c4ccccc34)CC2)c1 [Example 455] | 10.6
CC(C)C(=O)Nc1cccc(C2CCN(CCCNC(=O)N3C(=O)OC[C@@H]3c3cc(F)cc(F)c3)CC2)c1 [Example 578] | 98.8
Cc1ccc(Oc2ccc3[nH]cc(CN4CCC(c5cccc(NC(=O)C(C)C)c5)CC4)c3c2)cc1 [Example 527] | 226
COc1ccc(OC(CCCCN2CCC(c3cccc(NC(=O)C(C)C)c3)CC2)c2ccccc2)cc1 (centres unmarked) [Example 928] | 14.9
CC(C)C(=O)Nc1cccc(C2CCN(CCCc3c(-c4ccccc4I)[nH]c4c3ccc3ccccc34)CC2)c1 [Example 791] | 12.7
Cc1ccc(C(=O)CCCN2CCC(c3cccc(N(C)C(=O)C(C)C)c3)CC2)cc1C [Example 569] | 549
CC(C)C(=O)Nc1cccc(C2CCN(CC[C@H](NC(=O)NCc3ccccc3)c3ccccc3)CC2)c1 [Example 609] | 35.4
CC(C)C(=O)Nc1cccc(C2CCN(Cc3cccc4c3ccn4-c3ccc(F)cc3F)CC2)c1 [Example 866] | 169
Cc1[nH]c2ccc(Cl)cc2c1CN1CCC(c2cccc(NC(=O)C(C)C)c2)CC1 [Example 435] | 215
CCC(=O)Nc1cccc(C2CCN(CCCCC(=O)c3ccccc3F)CC2)c1 [Example 554] | 70.9
COc1ccc2[nH]c(-c3ccc(Br)cc3)c(CCCN3CCC(c4cccc(NC(=O)C(C)C)c4)CC3)c2c1 [Example 761] | 15.9
O=C(CCCCN1CCC(c2cccc(NC(=O)C3CC3)c2)CC1)c1ccccc1Cl [Example 567] | 92.2
CCC(=O)Nc1cccc(C2CCN(CCCC(=O)c3ccc(C)c(C)c3)CC2)c1 [Example 543] | 27.6
CC(C)C(=O)Nc1cccc(C2CCN(Cc3cccc4ccn(-c5cccc(Cl)c5Cl)c34)CC2)c1 [Example 855] | 256
CC(C)C(=O)Nc1cccc(C2CCN(Cc3cn(-c4cccc(C(F)(F)F)c4)c4ccccc34)CC2)c1 [Example 442] | 7.8
CC(C)C(=O)Nc1cccc(C2CCN(CCCCC(=O)c3cccc(Cl)c3)CC2)c1 [Example 666] | 21.9
Cc1cccc2c(CCCN3CCC(c4cccc(NC(=O)C(C)C)c4)CC3)c(-c3ccccc3Cl)[nH]c12 [Example 733] | 10
COc1ccccc1-n1ccc2cc(CN3CCC(c4cccc(NC(=O)C(C)C)c4)CC3)ccc21 [Example 841] | 25
CC(C)C(=O)Nc1cccc(C2CCN(CCCC/C(=N\Nc3ccccc3)c3ccc([N+](=O)[O-])cc3)CC2)c1 [Example 778] | 26.5

Structure (SMILES) | Ki [nM]
CC(C)C(=O)Nc1cccc(C2CCN(CCCCn3ccc4ccccc43)CC2)c1 [Example 837] | 35.9
CC(C)C(=O)Nc1cccc(C2CCN(CCCCCC(Oc3ccc(F)cc3)c3ccc(F)cc3)CC2)c1 (centres unmarked) [Example 897] | 6.4
CC(C)C(=O)Nc1cccc(C2CCN(Cc3cccc4c3ccn4-c3ccc(Cl)c(Cl)c3)CC2)c1 [Example 864] | 292
Cc1ccccc1NC(=S)N[C@@H](CCN1CCC(c2cccc(NC(=O)C(C)C)c2)CC1)c1ccccc1 [Example 608] | 34.9
CC(C)C(=O)Nc1cccc(C2CCN(CCCc3cc[nH]c3)CC2)c1 [Example 942] | 188
COc1ccc(CCCN2CCC(c3cccc(NC(=O)C(C)C)c3)CC2)cc1OC [Example 803] | 299
CC(C)C(=O)Nc1cccc(C2CCN(CCCCCC(Oc3cc(C(F)(F)F)ccc3F)c3ccccc3F)CC2)c1 (centres unmarked) [Example 913] | 12.9
CC(C)C(=O)Nc1cccc(C2CCN(CCCc3c(-c4ccc(I)cc4)n(C)c4ccccc34)CC2)c1 [Example 748] | 3.1
CC(C)C(=O)Nc1cccc(C2CCN(CCCCNC(=O)c3ccc(Oc4cc(Cl)cc(Cl)c4)o3)CC2)c1 [Example 656] | 49.7
CCC(=O)Nc1cccc(C2CCN(Cc3cn(-c4ccccc4Cl)c4ccccc34)CC2)c1 [Example 461] | 35.6
COc1cccc2c(CCN3CCC(c4cccc(NC(=O)C(C)C)c4)CC3)c[nH]c12 [Example 419] | 83.9
CC(C)C(=O)Nc1cccc(C2CCN(Cc3cccc4c3ccn4-c3ccccc3C(F)(F)F)CC2)c1 [Example 876] | 758
Cc1cccc2c(CCCN3CCC(c4cccc(NC(=O)C(C)C)c4)CC3)c(-c3ccc(I)cc3)[nH]c12 [Example 746] | 8
CC(=O)c1cccc(OC(CCCCCN2CCC(c3cccc(NC(=O)C(C)C)c3)CC2)c2ccc(Cl)cc2)c1 (centres unmarked) [Example 912] | 5.7
CC(C)C(=O)Nc1cccc(C2CCN(Cc3c(-c4ccccc4)n(C)c4ccccc34)CC2)c1 [Example 428] | 132
CCn1c2ccccc2c2cc(CN3CCC(c4cccc(N5CCCC5=O)c4)CC3)ccc21 [Example 824] | 36.5
CC(C)C(=O)Nc1cccc(C2CCN(CCNC(=O)C(c3ccccc3)c3ccccc3)CC2)c1 [Example 649] | 1.7
Cc1ccc2[nH]cc(CCN3CCC(c4cccc(NC(=O)C(C)C)c4)CC3)c2c1 [Example 411] | 82.3
Cc1ccc(C(=O)CCCN2CCC(c3cccc(NC(=O)C4CC4)c3)CC2)cc1 [Example 547] | 75.5
CC(C)C(=O)Nc1cccc(C2CCN(CCCNC(=O)NCc3ccccc3)CC2)c1 [Example 616] | 406
CC(C)C(=O)Nc1cccc(C2CCN(Cc3cn(-c4ccccc4)c4cc(F)ccc34)CC2)c1 [Example 502] | 4.6
CC(C)C(=O)Nc1cccc(C2CCN(CCCc3c(-c4ccccc4I)[nH]c4ccccc34)CC2)c1 [Example 790] | 4.4
CC(C)C(=O)Nc1cccc(C2CCN(CCCc3c(-c4cccc([N+](=O)[O-])c4)[nH]c4ccc(OC(F)(F)F)cc34)CC2)c1 [Example 768] | 17.5
CC(C)C(=O)Nc1cccc(C2CCN(CCCNC(=O)Nc3ccccc3)CC2)c1 [Example 618] | 400
CC(C)C(=O)Nc1cccc(C2CCN(CCCc3c(-c4ccccc4Br)[nH]c4ccc(OC(F)(F)F)cc34)CC2)c1 [Example 782] | 18.1
COc1ccc(C(=O)CCCN2CCC(c3cccc(NC(=O)C4CC4)c3)CC2)cc1 [Example 538] | 36.3
COc1ccc2[nH]c(-c3cccc(F)c3)c(CCCN3CCC(c4cccc(NC(=O)C(C)C)c4)CC3)c2c1 [Example 701] | 2.5
